According to patent publication US11076594B2, “Pyrazolone compound or salt thereof, preparation method therefor, herbicide composition and use thereof” (QINGDAO KINGAGROOT CHEMICAL COMPOUNDS CO., LTD., priority 2015, dated 2021):

Columns and labels:
Assay type in all cases: in vivo
Details in all cases: post-emergence spray at 4-5 leaf stage, 250 g/ha active ingredient with 450 kg/ha water, rated after 3 weeks in greenhouse
wheat = assay: post-emergence stage experiment, crop (Table 1)
Procedure, shortened: (§1)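 Read-out is growth control rate based on fresh weight, determined 3 weeks after treatment. Plants raised from seed in potted soil (0.5-2 cm cover) in greenhouse were sprayed 2-3 weeks post-sowing at 4-5 leaves with acetone/Tween 80 aqueous compound solutions.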

corn = assay: post-emergence stage experiment, crop (Table 1)
Procedure, shortened: as §1

rice = assay: post-emergence stage experiment, crop (Table 1); set-up: key: Level 10: completely dead; Level 9: above 95% growth control rate; Level 8: above 90% growth control rate; Level 7: above 80% growth control rate; Level 6: above 70% growth control rate; Level 5: above 60% growth control rate; Level 4: above 50% growth control rate; Level 3: above 20% growth control rate; Level 2: 5%-20% growth control rate; Level 1: below 5% growth control rate
Procedure, shortened: as §1

rorippa indica = assay: weed control effect in post-emergence stage (Table 1); set-up: key: Level 10: completely dead; Level 9: above 95% growth control rate; Level 8: above 90% growth control rate; Level 7: above 80% growth control rate; Level 6: above 70% growth control rate; Level 5: above 60% growth control rate; Level 4: above 50% growth control rate; Level 3: above 20% growth control rate; Level 2: 5%-20% growth control rate; Level 1: below 5% growth control rate
Procedure, shortened: as §1

echinochloa = assay: as above; set-up: key: Level 10: completely dead; Level 9: above 95% growth control rate; Level 8: above 90% growth control rate; Level 7: above 80% growth control rate; Level 6: above 70% growth control rate; Level 5: above 60% growth control rate; Level 4: above 50% growth control rate; Level 3: above 20% growth control rate; Level 2: 5%-20% growth control rate; Level 1: below 5% growth control rate
Procedure, shortened: as §1

foxtail = assay: as above; set-up: key: Level 10: completely dead; Level 9: above 95% growth control rate; Level 8: above 90% growth control rate; Level 7: above 80% growth control rate; Level 6: above 70% growth control rate; Level 5: above 60% growth control rate; Level 4: above 50% growth control rate; Level 3: above 20% growth control rate; Level 2: 5%-20% growth control rate; Level 1: below 5% growth control rate
Procedure, shortened: as §1

bidens bipinnata = assay: as above; set-up: key: Level 10: completely dead; Level 9: above 95% growth control rate; Level 8: above 90% growth control rate; Level 7: above 80% growth control rate; Level 6: above 70% growth control rate; Level 5: above 60% growth control rate; Level 4: above 50% growth control rate; Level 3: above 20% growth control rate; Level 2: 5%-20% growth control rate; Level 1: below 5% growth control rate
Procedure, shortened: as §1

Indian mallow = assay: as above; set-up: key: Level 10: completely dead; Level 9: above 95% growth control rate; Level 8: above 90% growth control rate; Level 7: above 80% growth control rate; Level 6: above 70% growth control rate; Level 5: above 60% growth control rate; Level 4: above 50% growth control rate; Level 3: above 20% growth control rate; Level 2: 5%-20% growth control rate; Level 1: below 5% growth control rate
Procedure, shortened: as §1

crab grass = assay: as above; set-up: key: Level 10: completely dead; Level 9: above 95% growth control rate; Level 8: above 90% growth control rate; Level 7: above 80% growth control rate; Level 6: above 70% growth control rate; Level 5: above 60% growth control rate; Level 4: above 50% growth control rate; Level 3: above 20% growth control rate; Level 2: 5%-20% growth control rate; Level 1: below 5% growth control rate
Procedure, shortened: as §1

Structure (SMILES)	effect on crop, Wheat (level) (wheat)	effect on crop, Corn (level) (corn)	effect on crop, Rice (level) (rice)	weed control effect, Rorippa indica (level) (rorippa indica)	weed control effect, Echinochloa (level) (echinochloa)	weed control effect, Green foxtail (level) (foxtail)	weed control effect, Bidens bipinnata (level) (bidens bipinnata)	weed control effect, Indian mallow (level) (Indian mallow)	weed control effect, Crab grass (level) (crab grass)
CCn1nc(C2CC2)c(C(=O)c2ccc(C(F)(F)F)c(-n3cc(C)cn3)c2Cl)c1OC(=O)c1cn(C)nc1C [Compound 145]	1 (Level 1: below 5% growth control rate)	0	9 (Level 9: above 95% growth control rate)	1 (Level 1: below 5% growth control rate)	10	8 (Level 8: above 90% growth control rate)	10	4 (Level 4: above 50% growth control rate)	4 (Level 4: above 50% growth control rate)
CCn1nc(C2CC2)c(C(=O)c2ccc(C(F)(F)F)c(N3CCCC3=O)c2Cl)c1O [Compound 104]	5 (Level 5: above 60% growth control rate)	4 (Level 4: above 50% growth control rate)	10	10	10	10	7 (Level 7: above 80% growth control rate)	10	9 (Level 9: above 95% growth control rate)
CCn1ncc(C(=O)c2ccc(C(F)(F)F)c(-n3cc(C)cn3)c2Cl)c1OC(=O)c1cn(C)nc1C [Compound 137]	3 (Level 3: above 20% growth control rate)	5 (Level 5: above 60% growth control rate)	8 (Level 8: above 90% growth control rate)	8 (Level 8: above 90% growth control rate)	10	10	10	10	7 (Level 7: above 80% growth control rate)
CCOc1c(C(=O)Oc2c(C(=O)c3ccc(C(F)(F)F)c(-n4cccn4)c3Cl)c(C3CC3)nn2C)cnn1C [Compound 074]	1 (Level 1: below 5% growth control rate)	3 (Level 3: above 20% growth control rate)	9 (Level 9: above 95% growth control rate)	10	6 (Level 6: above 70% growth control rate)	9 (Level 9: above 95% growth control rate)	4 (Level 4: above 50% growth control rate)	10	4 (Level 4: above 50% growth control rate)
Cc1cnn(-c2c(C(F)(F)F)ccc(C(=O)c3c(C4CC4)nn(C)c3O)c2Cl)c1 [Compound 089]	0	1 (Level 1: below 5% growth control rate)	1 (Level 1: below 5% growth control rate)	9 (Level 9: above 95% growth control rate)	5 (Level 5: above 60% growth control rate)	2 (Level 2: 5%-20% growth control rate)	3 (Level 3: above 20% growth control rate)	10	1 (Level 1: below 5% growth control rate)
CCOc1c(C(=O)Oc2c(C(=O)c3ccc(C(F)(F)F)c(N4CCCC4=O)c3Cl)cnn2C)cnn1C [Compound 015]	2 (Level 2: 5%-20% growth control rate)	9 (Level 9: above 95% growth control rate)	2 (Level 2: 5%-20% growth control rate)	9 (Level 9: above 95% growth control rate)	5 (Level 5: above 60% growth control rate)	10	8 (Level 8: above 90% growth control rate)	8 (Level 8: above 90% growth control rate)	9 (Level 9: above 95% growth control rate)
CCc1nn(CC)c(O)c1C(=O)c1ccc(C(F)(F)F)c(-n2cc(C)cn2)c1Cl [Compound 142]	2 (Level 2: 5%-20% growth control rate)	3 (Level 3: above 20% growth control rate)	7 (Level 7: above 80% growth control rate)	3 (Level 3: above 20% growth control rate)	10	6 (Level 6: above 70% growth control rate)	5 (Level 5: above 60% growth control rate)	5 (Level 5: above 60% growth control rate)	2 (Level 2: 5%-20% growth control rate)
CCn1ncc(C(=O)c2ccc(C(F)(F)F)c(N3CCCC3=O)c2Cl)c1OC(=O)c1cn(C)nc1C [Compound 097]	1 (Level 1: below 5% growth control rate)	1 (Level 1: below 5% growth control rate)	7 (Level 7: above 80% growth control rate)	10	10	10	10	10	3 (Level 3: above 20% growth control rate)
Cc1nn(C)c(OC(=O)c2cnn(C)c2)c1C(=O)c1ccc(C(F)(F)F)c(N2CCCCCC2=O)c1Cl [Compound 057]	0	0	3 (Level 3: above 20% growth control rate)	10	4 (Level 4: above 50% growth control rate)	1 (Level 1: below 5% growth control rate)	5 (Level 5: above 60% growth control rate)	10	1 (Level 1: below 5% growth control rate)
CCn1nc(C2CC2)c(C(=O)c2ccc(C(F)(F)F)c(N3CCCC3=O)c2Cl)c1OC(=O)c1cn(C)nc1C [Compound 105]	5 (Level 5: above 60% growth control rate)	5 (Level 5: above 60% growth control rate)	10	10	10	10	10	9 (Level 9: above 95% growth control rate)	10
